This passage reports Ki results from BindingDB's records for doi:10.1021/jm00137a012 (1981).

The structures appear in SMILES notation.

The target in the test is T1, Dihydrofolate reductase (Bos taurus, UniProt P00376).
T1 sequence (P00376 whole entry): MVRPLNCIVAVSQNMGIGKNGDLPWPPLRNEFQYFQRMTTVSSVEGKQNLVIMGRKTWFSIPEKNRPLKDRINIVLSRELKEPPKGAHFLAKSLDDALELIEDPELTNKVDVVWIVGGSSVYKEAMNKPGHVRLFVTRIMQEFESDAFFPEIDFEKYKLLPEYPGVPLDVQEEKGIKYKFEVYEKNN
Put plainly: Inhibition of dihydrofolate reductase from bovine liver.
For orientation: Ki means the dissociation constant of the complex between target and ligand, obtained from inhibition or displacement. Higher therefore signals a looser hold on the target. The molecule `Nc1ncc(Cc2cccc(C(F)(F)F)c2)c(N)n1` showed a Ki of 2.95 µM. `CCCCOc1ccc(Cc2cnc(N)nc2N)cc1` registered a Ki of 1.82 µM. Next, `Nc1ncc(Cc2cccc(O)c2)c(N)n1` [3-(2,4-Diamino-pyrimidin-5-ylmethyl)-phenol]: 13.2 µM; `COCCOc1c(OC)cc(Cc2cnc(N)nc2N)cc1OC` [5-[3,5-Dimethoxy-4-(2-methoxy-ethoxy)-benzyl]-pyrimidine-2,4-diamine]: 13.2 µM; `COCc1cccc(Cc2cnc(N)nc2N)c1`: 3.24 µM. `Nc1ncc(Cc2cccc(CO)c2)c(N)n1`: the Ki was 6.31 µM. In the case of `COc1ccc(Cc2cnc(N)nc2N)cc1OC` [Diaveridine] it was 7.08 µM; in that of `Nc1ccc(Cc2cnc(N)nc2N)cc1`, 26.9 µM. Next, `Nc1ncc(Cc2cccc(I)c2)c(N)n1`: 0.708 µM.

The molecule `CC(=O)Nc1ccc(Cc2cnc(N)nc2N)cc1[N+](=O)[O-]` had a Ki of 6.92 µM. `Nc1ncc(Cc2cc(CO)cc(CO)c2)c(N)n1` registered a Ki of 50.1 µM. With `Cc1ccc(Cc2cnc(N)nc2N)cc1`, the Ki stood at 15.8 µM. Next, `CS(=O)(=O)Oc1cccc(Cc2cnc(N)nc2N)c1`: 2.63 µM. In the case of `CCCCOCc1cccc(Cc2cnc(N)nc2N)c1` it was 1.38 µM; in that of `Nc1ncc(Cc2ccc(OC(F)(F)F)cc2)c(N)n1`, 3.8 µM.
